# Test results: ChEMBL document CHEMBL3804816 (Medchemcomm, 2016)
# Activity calls are given as the source filed them. The calls are words filed in the database; no cut-off is given here.
# Assays:
# Assay type in all cases: cell-based
# [1] = Agonist activity at GABA type-A receptor in human IMR32 cells after 2 hrs by Epic DMR assay; conditions: IMR-32, 2 h
# IMR-32 [2] = assay: Agonist activity at GABA type-A receptor in human IMR32 cells at 1 mM after 2 hrs by Epic DMR assay
# [3] = Antagonist activity against GABA type-A receptor in human IMR32 cells assessed as GABA-induced response preincubated for 10 mins followed by GABA addition measured at 140 mins by Epic DMR assay
# IMR-32 [4] = assay: Agonist activity at GABA type-A receptor in human IMR32 cells at 100 uM after 2 hrs by Epic DMR assay
smiles,measurement,setting,value
NCc1cc(O)no1 [MUSCIMOL],EC50,[1]; read-out: EC50,2040 nM
same,EC50,[1]; read-out: pEC50 (converted),1700 nM
same,Activity,IMR-32 [2],Active
Oc1noc2c1CCNC2,Activity,IMR-32 [2],Active
COc1ccc(-c2ccc(=N)n(CCCC(=O)O)n2)cc1 [GABAZINE],IC50,"[3]; IMR-32, read-out: IC50",7.38 µM
same,IC50,"[3]; IMR-32, read-out: pIC50 (converted)",4.57 µM
NCC(CC(=O)O)c1ccc(Cl)cc1 (racemic),Activity,IMR-32 [4],inactive
